Experimental data reported in paper PMC6234689 (International Journal of Retina and Vitreous, 2018).

Columns and labels:
[1] = Stability of intravitreal formulation after thermal sterilization by autoclaving; format: physicochemical; details: 0.08% w/v in sterile saline, concentration before and after autoclaving
Description: After checking it for pH, it was filled, sealed in glass ampoules and subjected for autoclaving.

[2] = rabbit, intravitreal 40 µg/50 µL
in vivo = details: New Zealand, rabbit, 40 µg
[3] = test system: progression of retinopathy; design: method as in PMID 9726242; details: EUCLID Study, diabetic patients; cited from earlier work
rabbit retina [4] = experiment: Fundus imaging after intravitreal injection; format: in vivo, New Zealand rabbits; details: intravitreal 40 µg/0.05 ml, observational period of 7 days
Experimental: (§1) Baseline electroretinogram (ERG) was obtained for rabbits prior the intravitreal injection as the method described below. […] The effective dose was calculated from the previous study performed in our lab.
Following Electroretinogram (ERG) study, rabbit retina was focused and fundus images of both eyes were recorded using streampix software using MICRON III rodent imaging system (Phoenix Lab, USA) after subjecting them for ERG.

rabbit retina [5] = details: intravitreal 40 µg/50 µL, 24, 48, 72 and 168 h
Experimental: as §1

In the case of `NCCCC[C@H](N[C@@H](CCc1ccccc1)C(=O)O)C(=O)N1CCC[C@H]1C(=O)O` [lisinopril], the “stability of formulation after thermal sterilization by autoclaving” value [1] is reported as “stable”, the “lisinopril concentration in retina-choroid (highest)” value ([2]; at 1 h) is reported as 7 µg and the “lisinopril concentration in the vitreous humour (highest)” value ([2]; at 1 h) is reported as 14.52 µg. For the same compound, the “maximum concentration in sclera” value ([2]; at 2 h) was 6.6 µg, the half-life (in vivo; in vivo) was 12.6 h and the half-life (in vivo; vitreous humour) was 41.5 h. For the same compound, the “reduction of the risk of progression of retinopathy” value [3] was “approximately 50%”, the “morphological changes in the retina on fundus images” value (rabbit retina [4]) was “no significant morphological changes” and the “'a' and 'b' wave amplitude of ERG compared to baseline” value (rabbit retina [5]) was “No changes were observed”.
